Source: patent publication US10758478B2, “Active agent loaded uniform, rigid, spherical, nanoporous calcium phosphate particles and methods of making and using the same” (Laboratory Skin Care, Inc., priority 2008, dated 2020)

Experiments:
[1] = Solubility of salicylic acid (water, ethanol and PEG); assay type: physicochemical
[2] = Binding capacity to hydroxyapatite; assay type: physicochemical

In the case of `O=C(O)c1ccccc1O` [Salicylic acid, 2-Hydroxybenzoic acid], the “solubility in ethanol and PEG (poly ethylene glycol)” value ([1]; ethanol and PEG) is reported as “up to 30%”, the solubility in water ([1]; water) is reported as “water insoluble” and the “binding capacity to hydroxyapatite” value [2] is reported as at most 1 mg.
